From patent publication US20250164476A1, “COLORIMETRIC ASSAY USING DITHIOLATE-GRAFTED NANOPARTICLES FOR HIGH-THROUGHPUT SCREENING OF CRYOPROTECTANTS” (The Government of the United States of America, as …, priority 2023, published 2025)

Columns and labels:
[1] = Ligand effect on the freezing of AuNP (96-well serial dilution); settings: for appearance of AuNP samples in presence of test ligand: before freezing, 10 nM AuNP in 1×PBS (FIG. 5A); for type of AuNP aggregation on freezing: conclusion from frozen and post-thaw states; for colloidal color of AuNP in frozen state: frozen at −20° C. for 2 hours, serial dilution, ligands from 1 mM, sucrose 40% (FIG. 5B); for colloidal color / optical properties of AuNP at post-thaw state: thawed at room temperature for 30 minutes (FIG. 5C)
Experimental: In a sample well plate series (96 wells), a 2 millimolar (mM) stock solution of the test ligands was mixed with AuNP, resulting in a 1 mM AuNP-probe solution which was deposited as a highest concentration in respective top wells (using two columns or lanes of wells for each ligand), and was serially diluted by half using 2×PBS buffer for every following well. More specifically, the stock ligand concentration, 1 mM, was diluted by ½, ¼, ⅛, 1/16, 1/32, 1/64, 1/128, and 1/256 times (from top to bottom) by using 2×PBS. After finishing serial dilution of the target materials (four ligands, here), 50 microliters (μL) of 20 nM AuNP were added to each well of the well plate series to make a 10 nM AuNP-probe in 1×PBS in each well as a final concentration. […] See the resulting sample well plate series in FIG. 5A.
FIG. 5B is an image of the 96 well plate series of FIG. 5A after freezing. Specifically, the 96 well plate series was frozen at −20° C. for 2 hours, resulting in the frozen state of the samples depicted in FIG. 5B.
FIG. 5C is an image of the 96 well plate series of FIG. 5B after thawing. More specifically, the 96 well plate series of FIG. 5B was thawed at room temperature for 30 minutes, resulting the post-thaw state of FIG. 5C.

[2] = AuNP-TA/NTA probe colorimetric HTS titration assay for anti-icing activity; settings: FIG. 8C; 0.2 mg/ml serially diluted, 1×PBS, frozen at −20° C. for 2 hours, thawed
Experimental: FIG. 6A is an image of a 96 well plate series titration test, utilizing an AuNP-TA/NTA probe in different test solutions at room temperature. From top to bottom there are six different testing targets: (1) AFP 0.3 mg/ml, (2) polyvinyl alcohol (PVA) 10K 0.3%, (3) bovine serum albumin (BSA) 0.3 mg/ml, (4) ethylene glycol (EG) 50%, (5) glycerol (Gly) 50%, and (6) 80 mg/ml zirconium acetate (ZrA). The buffer was 1×PBS except for the last sample ZrA, which was in 40 mM HCl (because ZrA is only active in acidic conditions). The target samples were diluted in rows by ½, ¼, ⅛, 1/16, 1/32, 1/64, 1/128, 1/256, 1/512, 1/1024, 1/2048 and 1/4096 times (from left to right) using 2×PBS or 80 mM HCl (for ZrA). Next, 50 μL of target materials were mixed with 50 μL of 20 nM AuNP-probe to make a final 1×PBS, or 40 mM HCl for the last sample, and 10 nM of AuNP probe in each well. […]
In general, titration is a common laboratory method for quantitative chemical analysis to determine the concentration of an identified analyte in terms of activity. […] Thus, it is necessary to obtain a quantified value or parameter in order to compare different test results in different conditions. […]

[3] = sucrose-based sandwich assay
Experimental: More specifically, FIGS. 10A-10F show respective anti-icing samples tested including: sucrose 40% (as a negative control), AFP (RiAFP) 0.12 mg/ml, BSA 0.12 mg/ml, 10K PVA 0.12 mg/ml, 10K PVA 1 mg/ml, and zirconium acetate (ZrN) 40 mg/ml. The buffer utilized was 0.5×PBS, with the exception of ZrN which was in 80 mM HCl. For the IRI assay, each sample was prepared with 40% sucrose as a final concentration. The following procedures were performed for each sample. Initially, 2 μL of sample was dropped between two round coverslips (borosilicate, d=1.3˜1.5 cm) and sealed with grease. The sample was then inserted into a Linkam® Scientific cryostage with liquid nitrogen (LN2) control. The sample was first frozen at −50° C. for 1 min, then the temperature was increased to −20° C. at a rate of 10° C./min, followed by a slow increase in temperature to −10° C. at a speed of 1° C./min. A sample image was then taken after annealed at −10° C. for 30 minutes without interruption.

Compound	appearance of AuNP samples in presence of test ligand [1]	type of AuNP aggregation on freezing [1]	colloidal color of AuNP in frozen state [1]	colloidal color / optical properties of AuNP at post-thaw state [1]	anti-icing effects from concentration-dependent color changes [2]	anti-icing effect in traditional IRI test [3]
nitrilotriacetic acid modified thioctic acid [TA-NTA]	well-dispersed without any color changes	reversible aggregation	turned translucent at the highest concentrations	almost fully recovered their intrinsic optical properties		
sulfonate modified thioctic acid [TA-SO3]	well-dispersed without any color changes	reversible aggregation	red at the highest concentration without any aggregation	almost fully recovered their intrinsic optical properties		
bovine serum albumin [BSA]					low-level anti-icing effects	confirmed

The next lines start with results.

appearance of AuNP samples in presence of test ligand [1]	Compound	type of AuNP aggregation on freezing [1]	colloidal color of AuNP in frozen state [1]	colloidal color / optical properties of AuNP at post-thaw state [1]	anti-icing effects from concentration-dependent color changes [2]	anti-icing effect in traditional IRI test [3]
well-dispersed without any color changes	O=C(O)CCCCC1CCSS1 (stereo not shown) [TA, thioctic acid]	irreversible aggregation	turned translucent at the highest concentrations	remained pale at the highest concentration		
well-dispersed without any color changes	OC[C@H]1O[C@@](CO)(O[C@H]2O[C@H](CO)[C@@H](O)[C@H](O)[C@H]2O)[C@@H](O)[C@@H]1O [sucrose]		changed from the original red (top well, at the highest concentration) to purple, and finally to pale purple			
